Here are results for eight compounds from PubChem BioAssay (NCI).

Among the test systems are MDA-MB-231 breast; 786-0 renal; DU-145 prostate; HL-60(TB) leukemia; RXF 393 renal; RPMI-8226 leukemia; NCI-H460 lung; SK-MEL-28 melanoma; SK-MEL-2 melanoma; SNB-19 CNS.
Holding throughout (test): growth of human tumour cells (NCI), 48 h

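How tested: cells in 96-well plates exposed to compound for 48 hours at five concentrations. GI50: concentration for 50% inhibition of growth. Definition used: TGI = concentration required for complete inhibition of growth.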

As for `COc1ccc(-c2nc(Nc3ccc(-c4nc5ccccc5[nH]4)cc3)nc(N3CCOCC3)n2)cc1`, the GI50 in the experiment on MDA-MB-231 breast is 1.63 µM; in the experiment on 786-0 renal, 1.44 µM; with DU-145 prostate, 4.54 µM; with HL-60(TB) leukemia, 1.94 µM; in the experiment on RXF 393 renal, 0.459 µM; in the experiment with RPMI-8226 leukemia it was 1.93 µM. Besides, the GI50 with NCI-H460 lung was 2.48 µM; with SK-MEL-28 melanoma, 1.8 µM; in the experiment with SK-MEL-2 melanoma it was 2.33 µM; in the experiment with SNB-19 CNS, 3.49 µM. The TGI in the experiment with MDA-MB-231 breast is 4.76 µM; with 786-0 renal it was 3.23 µM; in the experiment on DU-145 prostate, above 100 µM; with HL-60(TB) leukemia, 5.67 µM; in the experiment on RXF 393 renal it was 2.51 µM; in the experiment with RPMI-8226 leukemia it was 6.54 µM. In addition, the TGI was 6.51 µM in the experiment with NCI-H460 lung, 4.28 µM with SK-MEL-28 melanoma, 5.49 µM with SK-MEL-2 melanoma and above 100 µM with SNB-19 CNS.
In the case of `CC1SC2(CCC(c3ccccc3)CC2)N(NC(=O)c2[nH]c3ccc(F)cc3c2-c2ccccc2)C1=O` (centres undefined), the GI50 is 14.8 µM in the experiment on MDA-MB-231 breast; 2.92 µM in the experiment with 786-0 renal; 4.33 µM with DU-145 prostate; 1.31 µM in the experiment with HL-60(TB) leukemia; 2.22 µM in the experiment with RXF 393 renal; 0.804 µM in the experiment on RPMI-8226 leukemia. Moreover, the GI50 in the experiment on NCI-H460 lung was 4.28 µM; in the experiment on SK-MEL-28 melanoma, 5.34 µM; with SK-MEL-2 melanoma, 14 µM; in the experiment on SNB-19 CNS, 26.6 µM. Further, the TGI with MDA-MB-231 breast turned out to be 44 µM; in the experiment on 786-0 renal, 12.2 µM; in the experiment on DU-145 prostate, 17.8 µM; in the experiment on HL-60(TB) leukemia, 4.53 µM; with RXF 393 renal, 7.49 µM; with RPMI-8226 leukemia, 2.91 µM. Besides, the TGI in the experiment on NCI-H460 lung was 40.2 µM; with SK-MEL-28 melanoma it was 18.1 µM; in the experiment on SK-MEL-2 melanoma, 38.6 µM; with SNB-19 CNS, above 100 µM.
As to `CCOC(=O)c1ccc2c(c1)nc(/C=C/c1ccc(Cl)cc1)n2-c1cc(C(C)(C)C)[nH]n1`, the GI50 with MDA-MB-231 breast is 2.37 µM; in the experiment with 786-0 renal, 2.98 µM; in the experiment with DU-145 prostate, 21.5 µM; in the experiment on HL-60(TB) leukemia it was 39.9 µM; in the experiment on RXF 393 renal it was 2.21 µM; with RPMI-8226 leukemia it was 8.14 µM. Further, the GI50 in the experiment with NCI-H460 lung is 6.28 µM; in the experiment on SK-MEL-28 melanoma, 3.51 µM; with SNB-19 CNS, 5.93 µM. Further, the TGI with MDA-MB-231 breast was 7.57 µM; in the experiment on 786-0 renal it was 9.29 µM; in the experiment on DU-145 prostate, above 100 µM; with HL-60(TB) leukemia, above 100 µM; in the experiment on RXF 393 renal, 6.48 µM; with RPMI-8226 leukemia it was above 100 µM. Also, the TGI in the experiment on NCI-H460 lung is above 100 µM; with SK-MEL-28 melanoma it was 40.3 µM; in the experiment with SNB-19 CNS, above 100 µM.
As to `O=C1C(=O)c2ccccc2C(O)=C1CCCc1ccc(C2CCCC2)cc1`, the GI50 in the experiment with MDA-MB-231 breast is 11.1 µM; in the experiment with 786-0 renal, 4.02 µM; in the experiment with DU-145 prostate, 6.9 µM; in the experiment on HL-60(TB) leukemia, 2.9 µM; in the experiment on RXF 393 renal, 1.41 µM; with RPMI-8226 leukemia, 2.66 µM. In addition, the GI50 with NCI-H460 lung is 3.11 µM; with SK-MEL-28 melanoma, 7.69 µM; in the experiment on SK-MEL-2 melanoma, 7.2 µM. Further, the TGI with MDA-MB-231 breast is 43.9 µM; with 786-0 renal it was 21.4 µM; with DU-145 prostate, 54.9 µM; in the experiment with HL-60(TB) leukemia, 6.92 µM; in the experiment with RXF 393 renal, 11.6 µM; in the experiment on RPMI-8226 leukemia it was 6.94 µM. In addition, the TGI in the experiment on NCI-H460 lung turned out to be 11.8 µM; in the experiment with SK-MEL-28 melanoma, 40.1 µM; in the experiment on SK-MEL-2 melanoma it was 32.7 µM.
In the case of `CC(=O)c1ccc(Nc2nc(Nc3ccc(F)cc3)nc(Nc3ccc(F)cc3)n2)cc1`, the GI50 in the experiment on MDA-MB-231 breast is 6.81 µM; in the experiment on 786-0 renal it was 14.1 µM; with DU-145 prostate, 14.8 µM; in the experiment with RXF 393 renal, 3.15 µM; with RPMI-8226 leukemia, 94.9 µM; in the experiment on NCI-H460 lung, 8.65 µM. The results for the GI50 in the experiment with SK-MEL-28 melanoma, in the experiment with SK-MEL-2 melanoma and in the experiment on SNB-19 CNS were 11 µM, 10.1 µM and 16.4 µM, respectively. For the same compound, the TGI with MDA-MB-231 breast is 42.8 µM; with 786-0 renal, 32.5 µM; in the experiment with DU-145 prostate it was 55.7 µM; with RXF 393 renal, 11.5 µM; in the experiment with RPMI-8226 leukemia, above 100 µM; in the experiment on NCI-H460 lung, above 100 µM. Besides, the TGI came out at 45 µM in the experiment on SK-MEL-28 melanoma, 40.3 µM with SK-MEL-2 melanoma and 53.8 µM in the experiment on SNB-19 CNS.
For `COc1ccc2c(c1)C1OCCNC1CC2` (centres undefined), the TGI in the experiment on MDA-MB-231 breast, in the experiment with 786-0 renal, in the experiment with DU-145 prostate, in the experiment on HL-60(TB) leukemia, in the experiment on RXF 393 renal and in the experiment with RPMI-8226 leukemia was above 100 µM in each case. Further, the TGI in the experiment with SK-MEL-28 melanoma, in the experiment on SK-MEL-2 melanoma and in the experiment with SNB-19 CNS was above 100 µM throughout.
For the compound `CCCCCCCCCCCCCCCC(=O)N[C@H](/C=C/[C@H](O)CCCCCCCCCCCCC)CO`, the GI50 with MDA-MB-231 breast is above 100 µM; in the experiment on 786-0 renal, above 100 µM; with DU-145 prostate, above 100 µM; in the experiment on HL-60(TB) leukemia, above 100 µM; in the experiment on RXF 393 renal, above 100 µM; with RPMI-8226 leukemia, 0.884 µM. Moreover, the GI50 with NCI-H460 lung, with SK-MEL-28 melanoma and in the experiment with SNB-19 CNS was above 100 µM throughout. Moreover, the TGI in the experiment on MDA-MB-231 breast, in the experiment on 786-0 renal, with DU-145 prostate, with HL-60(TB) leukemia, with RXF 393 renal and in the experiment with RPMI-8226 leukemia was above 100 µM throughout. Besides, the TGI in the experiment with NCI-H460 lung, with SK-MEL-28 melanoma and in the experiment with SNB-19 CNS was above 100 µM in each case.
For `O=c1c2cccc(F)c2sc2c(N3CCNCC3)nc3ccccc3c12`, the GI50 is 1.61 µM in the experiment on MDA-MB-231 breast; 1.74 µM in the experiment on 786-0 renal; 1.4 µM in the experiment with DU-145 prostate; 1.76 µM in the experiment with HL-60(TB) leukemia; 1.31 µM in the experiment on RXF 393 renal; 1.69 µM with RPMI-8226 leukemia. The GI50 in the experiment on NCI-H460 lung was 1.02 µM; in the experiment on SK-MEL-28 melanoma, 1.88 µM; in the experiment with SK-MEL-2 melanoma, 1.76 µM. Besides, the TGI turned out to be 3.1 µM in the experiment with MDA-MB-231 breast; 3.28 µM in the experiment on 786-0 renal; 2.76 µM with DU-145 prostate; 3.44 µM with HL-60(TB) leukemia; 2.62 µM in the experiment with RXF 393 renal; 3.73 µM with RPMI-8226 leukemia. Also, the TGI in the experiment on NCI-H460 lung was 2.34 µM; in the experiment on SK-MEL-28 melanoma, 3.35 µM; with SK-MEL-2 melanoma, 3.46 µM.
